These results are taken from patent US12617814B2, “Neuroactive steroids and methods of use thereof” (Sage Therapeutics, LLC, priority 2013, dated 2026).

The target in assay [1] is T1, NMDA receptor (GRIN1/GRIN2A subunits) (Homo sapiens, UniProt Q05586+Q12879).
T1 construct: expressed in transfected cells
Kind of assay: NMDA potentiation, whole-cell patch clamp of HEK cells expressing NMDA receptor. The class given is cell-based. As to conditions: for NMDA 1a2A (%) Potentiation 0.1 uM: 0.1 uM compound; for NMDA 1a2A (%) Potentiation 0.1 uM / NMDA 1a2A (%) Potentiation 1 uM / activation at 0.1 µM / activation at 1 µM: HEK cells, 30 μM NMDA and 5.0 μM Glycine; for NMDA 1a2A (%) Potentiation 1 uM: 1 uM compound; for activation at 0.1 µM: HEK293, 0.1 uM compound, read-out: NMDA 1a2A (%) Potentiation 0.1 uM; for activation at 1 µM: HEK293, 1 uM compound, read-out: NMDA 1a2A (%) Potentiation 1 uM. The method, then: NMDA potentiation was assessed using either whole cell patch clamp of mammalian cells which expressed NMDA receptors, or using two-electrode voltage clamp (TEVC) of Xenopus Laevis oocytes expressing NMDA receptors.
NMDA/Glycine peak and steady-state currents were recorded from stably transfected cells expressing the NMDA receptor and the modulatory effects of the test items on these currents were investigated.
Cells were stably transfected with human GRIN1 (variant NR1-3). These cells were transiently transfected (Lipofectamine™) with GRIN2A cDNA and CD8 (pLeu) antigene cDNA. About 24-72 hours following transfection 1 μl Dynabeads M-45 CD8 was added to identify successfully transfected cells (Jurman et al., Biotechniques (1994) 17:876-881). Cells were passaged to a confluence of 50-80%. Cells were seeded onto Poly-L-Lysine coated cover slips covered with culture complete medium in a 35 mm culture dish. Confluent clusters of cells are electrically coupled (Pritchett et al., Science (1988), 242:1306-8). Because responses in distant cells are not adequately voltage clamped and because of uncertainties about the extent of coupling (Verdoorn et al., Neuron (1990), 4:919-28), cells were cultivated at a density that enables single cells (without visible connections to neighboring cells) to be measured. Cells were incubated at 37° C. in a humidified atmosphere with 5% CO2 (rel. humidity about 95%). The cells were continuously maintained in and passaged in sterile culture flasks containing a 1:1 mixture of Dulbecco's modified eagle medium and nutrient mixture F-12 (D-MEM/F-12 1×, liquid, with L-Glutamine) supplemented with 9% fetal bovine serum and 0.9% Penicillin/Streptomycin solution. The complete medium was supplemented with 3.0 μg/ml Puromycin.
Whole cell currents were measured with HEKA EPC-10 amplifiers using PatchMaster software. Cell culture dishes for recordings were placed on the dish holder of the microscope and continuously perfused (1 ml/min) with “bath solution” (NaCl 137 mM, KCl 4 mM, CaCl2 1.8 mM, MgCl2 1 mM, HEPES 10 mM, D-Glucose 10 mM, pH (NaOH) 7.4). All solutions applied to cells including the pipette solution were maintained at room temperature (19° C.-30° C.). After formation of a Gigaohm seal between the patch electrodes and transfected individual HEK 293 cells (pipette resistance range: 2.5 MΩ-6.0 MΩ; seal resistance range: >1 GQ) the cell membrane across the pipette tip was ruptured to assure electrical access to the cell interior (whole-cell patch-configuration). At this point the bath solution is switched to “NMDA bath solution” (NaCl 137 mM, KCl 4 mM, CaCl2 2.8 mM, HEPES 10 mM, D-Glucose 10 mM, Cremophore 0.02%, pH (NaOH) 7.4). NMDA inward currents were measured upon application of 30 μM NMDA (and 5.0 μM Glycine) to patch-clamped cells (2 applications) for 5 s. The cells were voltage clamped at a holding potential of −80 mV. For the analysis of test articles, NMDA receptors were stimulated by 30 μM NMDA and 5.0 μM Glycine after sequential pre-incubation of increasing concentrations of the test article. Pre-incubation duration was 30 s. Stimulation duration was 5 s Test articles were dissolved in DMSO to form stock solutions of 0.1 mM and 1 mM. Test articles were diluted to 0.1 μM and 1 μM in “NMDA bath solution”. Both concentrations of test articles were tested on each cell. The same concentration was applied at least three times or until the steady state current amplitude was reached. Every day one cell was tested with 50 μM PREGS (positive control) using the same application protocol to test whether cells were successfully transfected with NMDA receptors.

Assay [2] concerns the target NMDA (NR1a/NR2A) (Homo sapiens, UniProt Q05586+Q12879). As to conditions: cited from earlier work.

Bounds are passed on as bounds.

T1 sequence (Q12879 23-1464, other chains not shown): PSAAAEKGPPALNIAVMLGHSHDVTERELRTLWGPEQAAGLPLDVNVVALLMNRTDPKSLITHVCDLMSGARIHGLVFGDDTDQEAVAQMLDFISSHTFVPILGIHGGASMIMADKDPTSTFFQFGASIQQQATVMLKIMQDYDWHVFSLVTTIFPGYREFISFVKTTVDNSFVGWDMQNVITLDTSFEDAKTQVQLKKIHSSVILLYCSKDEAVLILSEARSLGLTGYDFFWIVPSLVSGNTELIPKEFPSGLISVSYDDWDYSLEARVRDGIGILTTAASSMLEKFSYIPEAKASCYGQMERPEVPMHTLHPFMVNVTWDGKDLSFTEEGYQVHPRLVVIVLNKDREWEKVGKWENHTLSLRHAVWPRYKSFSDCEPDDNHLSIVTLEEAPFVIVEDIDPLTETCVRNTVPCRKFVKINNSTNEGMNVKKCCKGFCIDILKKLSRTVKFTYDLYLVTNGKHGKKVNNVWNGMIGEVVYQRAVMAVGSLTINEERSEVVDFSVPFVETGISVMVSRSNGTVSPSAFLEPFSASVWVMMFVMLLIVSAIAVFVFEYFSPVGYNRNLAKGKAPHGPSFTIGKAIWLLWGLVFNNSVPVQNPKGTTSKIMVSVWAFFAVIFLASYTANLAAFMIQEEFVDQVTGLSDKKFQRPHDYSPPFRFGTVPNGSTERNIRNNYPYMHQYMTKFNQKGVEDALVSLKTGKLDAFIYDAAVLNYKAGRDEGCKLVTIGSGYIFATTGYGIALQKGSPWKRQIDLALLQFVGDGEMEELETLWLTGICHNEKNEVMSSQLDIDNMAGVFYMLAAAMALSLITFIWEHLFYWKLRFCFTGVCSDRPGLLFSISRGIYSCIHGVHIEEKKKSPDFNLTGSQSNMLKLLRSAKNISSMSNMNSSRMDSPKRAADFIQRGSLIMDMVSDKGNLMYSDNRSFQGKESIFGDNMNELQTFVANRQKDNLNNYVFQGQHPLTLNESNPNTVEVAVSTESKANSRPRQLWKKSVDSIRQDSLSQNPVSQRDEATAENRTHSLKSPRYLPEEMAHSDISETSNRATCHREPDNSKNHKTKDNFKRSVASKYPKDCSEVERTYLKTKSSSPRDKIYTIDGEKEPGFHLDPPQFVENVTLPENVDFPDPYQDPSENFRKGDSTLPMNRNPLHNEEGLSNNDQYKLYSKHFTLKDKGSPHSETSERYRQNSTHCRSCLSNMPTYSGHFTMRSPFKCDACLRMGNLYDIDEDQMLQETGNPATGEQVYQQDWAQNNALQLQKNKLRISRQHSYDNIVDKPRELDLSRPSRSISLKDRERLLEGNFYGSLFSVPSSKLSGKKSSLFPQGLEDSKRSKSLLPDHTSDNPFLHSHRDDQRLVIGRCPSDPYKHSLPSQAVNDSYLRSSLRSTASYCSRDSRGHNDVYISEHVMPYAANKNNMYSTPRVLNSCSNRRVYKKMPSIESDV
Sequence of NMDA (NR1a/NR2A) (Q12879 23-1464, other chains not shown): as above

As for `CCC(C)(O)CC[C@@H](C)[C@H]1CC[C@H]2[C@@H]3CC[C@H]4C[C@@](C)(O)CC[C@]4(C)[C@H]3CC[C@]12C` (some centres unmarked) [Compound 4-7], in assay [1], the “NMDA 1a2A (%) Potentiation 0.1 uM” value is recorded as “B (“B” indicates potentiation of >75% to 150%)” and the “NMDA 1a2A (%) Potentiation 1 uM” value was “C (“C” indicates potentiation of >150 to 250%)”.
Regarding `CCCC(C)(O)CC[C@@H](C)[C@H]1CC[C@H]2[C@@H]3CC[C@H]4C[C@@](C)(O)CC[C@]4(C)[C@H]3CC[C@]12C` (some centres unmarked) [Compound 5-3], in assay [1], the activation at 0.1 µM lay within 10 to 75% and the activation at 1 µM lay in the range of 75 to 150%.
In the same order, the values of `C[C@H](CC[C@H](O)C(F)(F)F)[C@H]1CC[C@H]2[C@@H]3CC=C4C[C@@](C)(O)CC[C@]4(C)[C@H]3CC[C@]12C` [Compound 1-15] are 75 to 150% and 150 to 250%.
On the same counts, the results for `CC(CCC(C)(C)O)[C@H]1CC[C@H]2[C@@H]3CC[C@H]4C[C@@](C)(O)CC[C@]4(C)[C@H]3CC[C@]12C` (some centres unmarked) [Comparison compound 3, reference compound] are 75 to 150% and 150 to 250%.
In the same order, the values of `C=CCC(C)(O)CC[C@@H](C)[C@H]1CC[C@H]2[C@@H]3CC=C4C[C@@](C)(O)CC[C@]4(C)[C@H]3CC[C@]12C` (some centres unmarked) [Compound 6-2] are 75 to 150% and 150 to 250%.
In the case of `C[C@H](CCC(C)(O)C1CC1)[C@H]1CC[C@H]2[C@@H]3CC=C4C[C@@](C)(O)CC[C@]4(C)[C@H]3CC[C@]12C` (some centres unmarked) [Compound 9-2], in assay [1], the activation at 0.1 µM was in the range of 150 to 250% and the activation at 1 µM was in the range of 150 to 250%.
Turning to `CC(CCC(C)(C)O)[C@H]1CC[C@H]2[C@@H]3CC=C4C[C@@](C)(O)CC[C@]4(C)[C@H]3CC[C@]12C` (some centres unmarked) [Comparison compound 2, reference compound], in assay [1], the activation at 0.1 µM is 75 to 150% and the activation at 1 µM is > 250%.
On to `CC(C)C(C)(O)CC[C@@H](C)[C@H]1CC[C@H]2[C@@H]3CC[C@H]4C[C@@](C)(O)CC[C@]4(C)[C@H]3CC[C@]12C` (some centres unmarked) [Compound 8-3], for which, in assay [1], the activation at 0.1 µM lay in the range of 75 to 150% and the activation at 1 µM is > 250%.
For `C[C@H](CCC(O)C(F)(F)F)[C@H]1CC[C@H]2[C@@H]3CC=C4C[C@@](C)(O)CC[C@]4(C)[C@H]3CC[C@]12C` (some centres unmarked) [Compound 1-11], in assay [1], the activation at 0.1 µM was 150 to 250% and the activation at 1 µM is 150 to 250%.
In the case of `C[C@H](CC[C@@H](O)C(F)(F)F)[C@H]1CC[C@H]2[C@@H]3CC=C4C[C@@](C)(O)CC[C@]4(C)[C@H]3CC[C@]12C` [Compound 1-17], in assay [1], the activation at 0.1 µM was 150 to 250% and the activation at 1 µM is 150 to 250%.
For `CC(O)CCC(C)[C@H]1CC[C@H]2[C@@H]3CC=C4C[C@@H](O)CC[C@]4(C)[C@H]3CC[C@]12C` (some centres unmarked) [Comparison compound 1, reference compound], in assay [1], the activation at 0.1 µM fell in the range of 10 to 75% and the activation at 1 µM fell in the range of 75 to 150%.
Turning to `CCCC(C)(O)CC[C@@H](C)[C@H]1CC[C@H]2[C@@H]3CC=C4C[C@@](C)(O)CC[C@]4(C)[C@H]3CC[C@]12C` (some centres unmarked) [Compound 5-2], in assay [1], the activation at 0.1 µM is 75 to 150% and the activation at 1 µM lay within 150 to 250%.
Regarding `CCC(C)(O)CC[C@@H](C)[C@H]1CC[C@H]2[C@@H]3CC[C@H]4C[C@@](C)(O)CC[C@]4(C)[C@H]3CC[C@]12C` (some centres unmarked) [Comparison compound 5, reference compound], in assay [1], the “NMDA 1a2A (%) Potentiation 0.1 uM” value is “A (“A” indicates 10-75% potentiation)” and the “NMDA 1a2A (%) Potentiation 1 uM” value is listed as “A (“A” indicates 10-75% potentiation)”.
As for `CC(C)C(C)(O)CC[C@@H](C)[C@H]1CC[C@H]2[C@@H]3CC=C4C[C@@](C)(O)CC[C@]4(C)[C@H]3CC[C@]12C` (some centres unmarked) [Compound 8-2], in assay [1], the activation at 0.1 µM lay within 75 to 150% and the activation at 1 µM was in the range of 150 to 250%.
As to `C[C@H](CCC(C)(C)O)[C@H]1CC[C@H]2[C@@H]3CC=C4C[C@@H](O)CC[C@]4(C)[C@H]3CC[C@]12C` (stereo in doubt) [Org-1, reference compound], in assay [1], the activation at 0.1 µM lay within 10 to 75% and the activation at 1 µM fell in the range of 150 to 250%. Further, in assay [2], the “modulation of NMDA (NR1a/NR2A)” value is on record as “positive modulator” and the “selectivity NMDA over GABAA” value was “selectively modulate NMDA over GABAA”.
Consider `C[C@H](CCC(O)C(F)(F)F)[C@H]1CC[C@H]2[C@@H]3CC[C@H]4C[C@@](C)(O)CC[C@]4(C)[C@H]3CC[C@]12C` (some centres unmarked) [Compound 1-12], for which, in assay [1], the activation at 0.1 µM is 10 to 75% and the activation at 1 µM lay in the range of 75 to 150%.
In the same order, the values of `CCC(C)(O)CC[C@@H](C)[C@H]1CC[C@H]2[C@@H]3CC=C4C[C@@](C)(O)CC[C@]4(C)[C@H]3CC[C@]12C` (some centres unmarked) [Compound 4-6] are 150 to 250% and 150 to 250%.
In the case of `CCCCC(C)(O)CC[C@@H](C)[C@H]1CC[C@H]2[C@@H]3CC=C4C[C@@](C)(O)CC[C@]4(C)[C@H]3CC[C@]12C` (some centres unmarked) [Compound 7-2], in assay [1], the activation at 0.1 µM fell in the range of 10 to 75% and the activation at 1 µM lay within 75 to 150%.
Take `CC(C)(O)CCC[C@H]1CC[C@H]2[C@@H]3CC[C@H]4C[C@@](C)(O)CC[C@]4(C)[C@H]3CC[C@]12C` [Comparison compound 4, reference compound]: in assay [1], the activation at 0.1 µM was 10 to 75% and the activation at 1 µM lay within 75 to 150%. In addition, the “loss of NMDA potentiation compared to Comparison Compound 3” value in assay [1] (measured at 0.1 μM concentration) is given as “five fold”.
